This note sets out measurements from patent US9956301B2, “Complex of garcinol, cyclodextrin and method thereof” (Indus Biotech Private Limited, priority 2010, dated 2018).

Where two headings read alike, the source gives them in different places.

The test system of data set [1] is Doxorubicin induced cardiac dysfunction. In words: Activity of Garcinol against Doxorubicin induced cardiac dysfunction. The class given is in vivo. Conditions: rats; for Glutathione / Lipid Peroxidation: heart tissue, Garcinol 100 mg/kg p.o. + Doxorubicin 10 mg/kg i.v., n = 4. As for the experimental part: Male Wistar rats were pretreated with Garcinol at 10, 25, 50, 100 and 200 mg/kg (p.o.) for 18 days. On day 16, Doxorubicin at a dose of 10 mg/kg (i.v.) was administered intravenously. On day 18, animals were sacrificed. […] Elevated oxidative stress on the heart was also seen from increased lipid peroxidation and decreased glutathione (GSH) concentrations.

Data set [2] has the same test system. In kind it is in vivo. The following applies: rats, Doxorubicin Control = Doxorubicin alone, Mean ± SEM; for Glutathione / Lipid Peroxidation: heart tissue, Test Molecule 20 mg/kg p.o. + Doxorubicin 10 mg/kg i.v., n = 4; for Diastolic Blood Pressure / Mean Arterial Blood Pressure / Systolic Blood Pressure: Test Molecule 20 mg/kg p.o. 18 days + Doxorubicin 10 mg/kg i.v. day 16; for Diastolic Blood Pressure / Mean Arterial Blood Pressure / Systolic Blood Pressure / Difference in Heart Rate / Difference in QT interval / Difference in ST interval: n = 6; for Difference in Heart Rate / Difference in QT interval / Difference in ST interval: pretreatment p.o. 18 days (Test Molecule 20 mg/kg) + Doxorubicin 10 mg/kg i.v. day 16. As for the experimental part:
Male Wistar rats were pretreated with 20 mg/kg (p.o.) of test molecule for 18 days. On day 16, Doxorubicin at a dose of 10 mg/kg (i.v.) was administered intravenously. On day 18, animals were sacrificed. […] It also induces significant prolongation of QT and ST intervals. Significant reduction of mean arterial blood pressure, systolic and diastolic blood pressures were observed. Elevated oxidative stress on the heart was also seen from increased lipid peroxidation and decreased glutathione (GSH) concentrations.

Data set [3] relates to cardiac dysfunction induced by chronic Doxorubicin administration. The data set is described as follows: Effect of test molecule in chronic administration of Doxorubicin. The class given is in vivo, Male Wistar rats. The following applies: for Cytoplasmic Eosinophilia / Cytoplasmic vacuoles / Inflammation / Myocardial necrosis / Vascular congestion: heart histopathology, day 30, chronic Doxorubicin, Test Molecule 20 mg/kg; for Cytoplasmic Eosinophilia / Cytoplasmic vacuoles / Inflammation / Myocardial necrosis / Vascular congestion / Glutathione / Lipid Peroxidation: n = 4; for Glutathione / Lipid Peroxidation: heart tissue, Test Molecule 20 mg/kg p.o. 30 days + chronic Doxorubicin; for Glutathione / Lipid Peroxidation / Diastolic Blood Pressure / Mean Arterial Blood Pressure / Systolic Blood Pressure / Difference in Heart Rate / Difference in QT interval / Difference in QTc interval / Difference in ST interval: rats, Doxorubicin Control = Doxorubicin alone, Mean ± SEM; for Diastolic Blood Pressure / Mean Arterial Blood Pressure / Systolic Blood Pressure: Test Molecule 20 mg/kg p.o. 30 days + chronic Doxorubicin 3 mg/kg x 5; for Diastolic Blood Pressure / Mean Arterial Blood Pressure / Systolic Blood Pressure / Difference in Heart Rate / Difference in QT interval / Difference in QTc interval / Difference in ST interval: n = 6; for Difference in Heart Rate / Difference in QT interval / Difference in QTc interval / Difference in ST interval: pretreatment p.o. 30 days (Test Molecule 20 mg/kg) + Doxorubicin 3 mg/kg on days 1, 7, 14, 21, 28. As to the method:
Male Wistar rats were pretreated with 20 mg/kg (p.o.) of test molecule for 30 days. On days 1, 7, 14, 21 and 28, Doxorubicin at a dose of 3 mg/kg […] was administered intravenously. On Day 30, animals were sacrificed for histopathological examination of the heart.

A short description of data set [4]: Water solubility of Garcinol and test molecule. The class given is physicochemical. The following applies: room temperature. From the text:
Garcinol is insoluble in water at room temperature.

For data set [5], the system named is Isoproterenol induced cardiac dysfunction. In words: Cardioprotective activity of test molecule in Isoproterenol induced cardiac dysfunction. In kind it is in vivo, Male Wistar rats. Conditions: rats, Isoproterenol Control = Isoproterenol alone, Mean ± S.E.M. As to the method:
Male Wistar rats were pretreated with 20 mg/kg (p.o.) of test molecule 18 days. From Day 9, Isoproterenol at a dose of 1 mg/kg/day was administered intravenously for 10 days. Isoproterenol administration induced significant changes to the QT and ST interval. Isoproterenol induced oxidative stress was observed by decreased Glutathione (GSH) and increased lipid peroxidation concentrations in the heart.

Data set [6] has as its system Digitalis induced cardiac dysfunction. In words: Cardioprotective activity of test molecule in Digitalis induced cardiac dysfunction. In kind it is in vivo, Male Wistar rats. As for the experimental part:
Male Wistar rats were pretreated with 20 mg/kg (p.o.) of test molecule for 18 days. On Day 18, Digitalis at a three doses of 500 […] was administered intravenously with interval period of 15 min. After this, 200 […] was administered every 15 min continued upto cardiac arrest. Histopathological examination of the heart was conducted.

The mark [7] stands for this setting: Doxorubicin Control = Doxorubicin alone, Mean ± SEM.
The mark [8] stands for this setting: Garcinol 100 mg/kg p.o. 18 days + Doxorubicin 10 mg/kg i.v. day 16, Doxorubicin Control = Doxorubicin alone, Mean ± SEM, n = 6.
The mark [9] stands for this setting: heart tissue, Test Molecule 20 mg/kg + Isoproterenol, n = 4.
Where [10] appears, read: test molecule 20 mg/kg p.o. 18 days + Isoproterenol 1 mg/kg/day i.v. 10 days from Day 9, n = 5.
Where [11] appears, read: heart histopathology, Digitalis induced cardiac dysfunction, n = 4.
[12] abbreviates: rats, test molecule 20 mg/kg p.o. 18 days + Digitalis i.v., Digitalis Control = Digitalis alone, Mean ± S.E.M, n = 4.
Setting [13] is: rats, test molecule 20 mg/kg p.o. 18 days, then Digitalis i.v. every 15 min up to cardiac arrest, Digitalis Control = Digitalis alone, Mean ± S.E.M., n = 6.

For `COc1cccc2c1C(=O)c1c(O)c3c(c(O)c1C2=O)C[C@@](O)(C(=O)CO)C[C@@H]3O[C@H]1C[C@H](N)[C@H](O)[C@H](C)O1` [Doxorubicin], the “Number of Animals Deaths” value in data set [1] (Doxorubicin Control: Doxorubicin 10 mg/kg i.v. day 16 alone) is on record as 0/6. Besides, in data set [1] (setting [7]), the Glutathione was 16.10 ± 1.17 μg/mg of protein and the “Lipid Peroxidation” value is recorded as 4.56 ± 0.47 nmol of MDA/mg of Protein. In addition, in data set [1] (setting [8]), the “Difference in Heart Rate” value is reported as −77.5 ± 19.63 bpm, the “Difference in QT interval” value worked out at 0.014 ± 0.0035 s and the “Difference in ST interval” value was 0.0085 ± 0.0048 s. For the same compound, in data set [2], the Glutathione is recorded as 17.29 ± 0.4496 μg/mg of protein, the “Lipid Peroxidation” value is on record as 4.160 ± 0.3427 nmol of MDA/mg of Protein, the “Diastolic Blood Pressure” value is on record as 75.96 ± 3.611 mm Hg and the “Mean Arterial Blood Pressure” value is 89.26 ± 1.837 mm Hg. For the same compound, in data set [2], the “Systolic Blood Pressure” value is reported as 89.44 ± 5.108 mm Hg, the “Difference in Heart Rate” value is −33.67 ± 15.96 bpm, the “Difference in QT interval” value is 0.0229 ± 0.00206 s and the “Difference in ST interval” value was 0.015 ± 0.001497 s. In addition, in data set [3], the “Cytoplasmic Eosinophilia” value is reported as “+++ ((+++) 60-90% of cells show changes)”, the Cytoplasmic vacuoles result is on record as “++ ((++) 30-60% of cells show changes)”, the Inflammation result is “+++ ((+++) 60-90% of cells show changes)” and the Myocardial necrosis entry is on record as “+++ ((+++) 60-90% of cells show changes)”. Moreover, in data set [3], the Vascular congestion result is given as “++ ((++) 30-60% of cells show changes)”, the Glutathione is 15.05 ± 0.8970 μg/mg of protein, the “Lipid Peroxidation” value was 4.631 ± 0.3671 nmol of MDA/mg of Protein and the “Diastolic Blood Pressure” value came to 82.81 ± 1.997 mm Hg. In data set [3], the “Mean Arterial Blood Pressure” value is given as 86.67 ± 0.9226 mm Hg, the “Systolic Blood Pressure” value is on record as 92.59 ± 1.728 mm Hg, the “Difference in Heart Rate” value is recorded as −64.59 ± 12.13 bpm and the “Difference in QT interval” value was 0.015 ± 0.00087 s. Further, in data set [3], the “Difference in QTc interval” value is 0.035 ± 0.0046 s and the “Difference in ST interval” value worked out at 0.016 ± 0.0015 s.

For `C=C(C)[C@@H](CC=C(C)C)C[C@@]12C[C@@H](CC=C(C)C)C(C)(C)[C@@](CC=C(C)C)(C(=O)C(C(=O)c3ccc(O)c(O)c3)=C1O)C2=O` [Garcinol], in data set [4], the Water solubility result is recorded as “insoluble”. Further, the “Animal mortality / toxicity (in words)” value in data set [1] (Garcinol 100 to 200 mg/kg p.o., Doxorubicin 10 mg/kg i.v.) is “animal mortality was observed”. In data set [1] (setting [7]), the Glutathione is on record as 22.05 ± 1.031 μg/mg of protein and the “Lipid Peroxidation” value is recorded as 1.69 ± 0.04 nmol of MDA/mg of Protein.

In the case of `CC(C)NCC(O)c1ccc(O)c(O)c1` (stereo not shown) [Isoproterenol], in data set [5] (setting [9]), the Glutathione is listed as 19.02 ± 0.8526 μg/mg of protein and the “Lipid Peroxidation” value is 4.443 ± 0.0392 nmol of MDA/mg of Protein. Besides, in data set [5] (setting [10]), the “Difference in Heart Rate” value is 43.66 ± 6.267 bpm, the “Difference in QT interval” value was 0.01686 ± 0.002 s, the “Difference in ST interval” value turned out to be 0.0180 ± 0.0009 s and the “Mean Arterial Blood Pressure” value was 72.45 ± 5.942 mm Hg.

As for Cyclodextrin, in data set [2], the Glutathione is reported as 16.76 ± 0.4971 μg/mg of protein, the “Lipid Peroxidation” value is reported as 4.056 ± 0.2880 nmol of MDA/mg of Protein, the “Diastolic Blood Pressure” value was found to be 76.83 ± 1.709 mm Hg and the “Mean Arterial Blood Pressure” value worked out at 89.26 ± 2.357 mm Hg. Moreover, in data set [2], the “Systolic Blood Pressure” value is on record as 89.88 ± 4.507 mm Hg, the “Difference in Heart Rate” value is listed as −34.87 ± 6.935 bpm, the “Difference in QT interval” value stood at 0.0225 ± 0.00091 s and the “Difference in ST interval” value was determined as 0.014 ± 0.001025 s. Further, in data set [3], the “Cytoplasmic Eosinophilia” value is recorded as “++ ((++) 30-60% of cells show changes)”, the Cytoplasmic vacuoles result is given as “++ ((++) 30-60% of cells show changes)”, the Inflammation result is “+++ ((+++) 60-90% of cells show changes)” and the Myocardial necrosis result is “+++ ((+++) 60-90% of cells show changes)”. In data set [3], the Vascular congestion result is listed as “++ ((++) 30-60% of cells show changes)”, the Glutathione was 15.15 ± 0.6584 μg/mg of protein, the “Lipid Peroxidation” value is given as 4.700 ± 0.6126 nmol of MDA/mg of Protein and the “Diastolic Blood Pressure” value worked out at 80.00 ± 2.298 mm Hg. Also, in data set [3], the “Mean Arterial Blood Pressure” value came out at 88.04 ± 1.813 mm Hg, the “Systolic Blood Pressure” value is reported as 92.22 ± 2.275 mm Hg, the “Difference in Heart Rate” value was −66.22 ± 8.303 bpm and the “Difference in QT interval” value was 0.015 ± 0.00437 s. Besides, in data set [3], the “Difference in QTc interval” value was 0.033 ± 0.0092 s and the “Difference in ST interval” value stood at 0.016 ± 0.0022 s.

On to Digitalis, for which, in data set [6] (setting [11]), the “Cytoplasmic Eosinophilia” value is given as “++ ((++) 30-60% of cells show changes)”, the Cytoplasmic vacuoles entry is recorded as “++ ((++) 30-60% of cells show changes)”, the Inflammation result was “+++ ((+++) 60-90% of cells show changes)” and the Myocardial necrosis entry is reported as “+++ ((+++) 60-90% of cells show changes)”. For the same compound, in data set [6] (setting [11]), the Vascular congestion result was “++ ((++) 30-60% of cells show changes)”. Also, in data set [6] (setting [12]), the Glutathione was 21.01 ± 0.5369 μg/mg of protein and the “Lipid Peroxidation” value is listed as 6.909 ± 0.4459 nmol of MDA/mg of Protein. For the same compound, in data set [6] (setting [13]), the “Dose of Digitalis required for inducing Arterial Fibrillation” value is 2.933 ± 0.2333 mg/kg, the “Dose of Digitalis required for inducing Cardiac Arrest” value was 3.067 ± 0.2801 mg/kg and the “Dose of Digitalis required for inducing Ectopic Beats” value worked out at 2.7 ± 0.2129 mg/kg.
